# Laboratory results: patent US20200223889A1, “Bicyclic Compounds Capable of Binding to Melanocortin 4 Receptor” (Novo Nordisk A/S, priority 2017, published 2020)
# Positions of bridges follow the written chain, without caps; N, C: chain ends. Non-standard residues stand in square brackets, D forms with d. Residues, ends and D or L forms follow the SMILES beside them. Thz = O=C(O)[C@@H]1CSCN1
# Experiment: In vivo obese model: DIO mice treated once daily, food intake and body weight
# Method: Stimulation of MC4R signaling is reported to modulate energy intake and expenditure in both humans and rodents. In order to test the effect of MC4R agonists on food intake and body weight, diet-induced obese (DIO) mice were treated once daily with compounds to assess weight loss efficacy.
# All animal protocols were approved by an Institutional Animal Care and Use Committee and Ethical Review Committee of Novo Nordisk. Animals were housed according to Novo Nordisk rodent housing standards, and were given ad libitum access to food and water under controlled lighting (12 h:12 h light/dark cycle; lights off 17:00-05:00), temperature (23±2° C.) and relative humidity (50±20%) conditions. Diet-induced obese (DIO) male C57BL/6J mice maintained on a high fat diet (60% kcal fat, 5.24 kcal/gram; RD12492, Research Diets, New Brunswick, N.J., USA) for 22 weeks were obtained from Charles River (France). Upon arrival, the mice were single-housed (one mouse per cage) and allowed to acclimate to their new environment for two weeks prior to the start of treatment.
# Prior to initiation of the study, animals were single-housed and acclimated to handling for 7 days. The DIO mice were distributed into groups (n=8/group) such that statistical variations in the mean and standard deviations of fat mass and body weight were minimized between groups. Animals were dosed once daily, subcutaneously at 16:00 with either vehicle or compound
# Body weight and food intake were measured immediately prior to dosing each day. The average starting body weight of the mice prior to start of treatment was 47.2±0.2 grams.
# [1] = 0.3 μmol/kg once daily s.c., day 1, mean ± SEM
# [2] = 0.3 μmol/kg once daily s.c., day 2, mean ± SEM
# [3] = 0.3 μmol/kg once daily s.c., day 3, mean ± SEM
# [4] = 0.3 μmol/kg once daily s.c., day 4, mean ± SEM
# [5] = 0.3 μmol/kg once daily s.c., day 5, mean ± SEM
# [6] = 0.3 μmol/kg once daily s.c., day 6, mean ± SEM
# [7] = 0.3 μmol/kg once daily s.c., day 7, mean ± SEM
# [8] = 0.3 μmol/kg once daily s.c., day 8, mean ± SEM
# [9] = 0.3 μmol/kg once daily s.c., day 9, mean ± SEM
# [10] = 0.3 μmol/kg once daily s.c., day 10, mean ± SEM
# [11] = 0.3 μmol/kg once daily s.c., day 11, mean ± SEM
# [12] = 0.3 μmol/kg once daily s.c., day 12, mean ± SEM
# [13] = 0.3 μmol/kg once daily s.c., day 13, mean ± SEM
# [14] = 0.3 μmol/kg once daily s.c., day 14, mean ± SEM
# [15] = 0.3 μmol/kg once daily s.c., day 15, mean ± SEM
# [16] = 0.3 μmol/kg once daily s.c., day 16, mean ± SEM
# [17] = 0.3 μmol/kg once daily s.c., day 17, mean ± SEM
# [18] = 0.3 μmol/kg once daily s.c., day 18, mean ± SEM
# [19] = 0.3 μmol/kg once daily s.c., day 19, mean ± SEM
# [20] = 0.3 μmol/kg once daily s.c., day 20, mean ± SEM
# [21] = 1.5 μmol/kg once daily s.c., day 1, mean ± SEM
# [22] = 1.5 μmol/kg once daily s.c., day 2, mean ± SEM
# [23] = 1.5 μmol/kg once daily s.c., day 3, mean ± SEM
# [24] = 1.5 μmol/kg once daily s.c., day 4, mean ± SEM
# [25] = 1.5 μmol/kg once daily s.c., day 5, mean ± SEM
# [26] = 1.5 μmol/kg once daily s.c., day 6, mean ± SEM
# [27] = 1.5 μmol/kg once daily s.c., day 7, mean ± SEM
# [28] = 1.5 μmol/kg once daily s.c., day 8, mean ± SEM
# [29] = 1.5 μmol/kg once daily s.c., day 9, mean ± SEM
# [30] = 1.5 μmol/kg once daily s.c., day 10, mean ± SEM
# [31] = 1.5 μmol/kg once daily s.c., day 11, mean ± SEM
# [32] = 1.5 μmol/kg once daily s.c., day 12, mean ± SEM
# [33] = 1.5 μmol/kg once daily s.c., day 13, mean ± SEM
# [34] = 1.5 μmol/kg once daily s.c., day 14, mean ± SEM
# [35] = 1.5 μmol/kg once daily s.c., day 15, mean ± SEM
# [36] = 1.5 μmol/kg once daily s.c., day 16, mean ± SEM
# [37] = 1.5 μmol/kg once daily s.c., day 17, mean ± SEM
# [38] = 1.5 μmol/kg once daily s.c., day 18, mean ± SEM
# [39] = 1.5 μmol/kg once daily s.c., day 19, mean ± SEM
# [40] = 1.5 μmol/kg once daily s.c., day 20, mean ± SEM
smiles,measurement,setting,value
"C[C@@H]1NC(=O)[C@H](CCCCN)NC(=O)[C@@H]2CSSC[C@H](NC(=O)[C@H](Cc3c[nH]c4ccccc34)NC(=O)[C@H](C)NC(=O)[C@@H](CCCCN)NC1=O)C(=O)N1CSC[C@H]1C(=O)N[C@@H](Cc1c[nH]cn1)C(=O)N[C@H](Cc1ccccc1)C(=O)N[C@@H](Cc1c[nH]cn1)C(=O)N[C@@H](Cc1c[nH]c3ccccc13)C(=O)N2 [Chem. 114, c[c[Cys-THAZ-His-D-Phe-His-Trp- Cys]-Lys-Ala-D-Lys-Ala-Trp]] (cyclo(AWC[Thz]H[dF]HWCKA[dK]); disulfide 3-9)","Daily food intake, kcals","0.3 μmol/kg once daily s.c., day 0, mean ± SEM",13.4 ± 0.6 kcals
same,"Cumulative food intake, kcals",[1],7.7 ± 0.5 kcals
same,"Daily food intake, kcals",[1],7.7 ± 0.5 kcals
same,"Relative body weight, % initial",[1],96 ± 0.3 % initial
same,"Cumulative food intake, kcals",[2],13.6 ± 1.5 kcals
same,"Daily food intake, kcals",[2],6 ± 1.2 kcals
same,"Relative body weight, % initial",[2],94.2 ± 0.3 % initial
same,"Cumulative food intake, kcals",[3],23.5 ± 2.1 kcals
same,"Daily food intake, kcals",[3],9.9 ± 0.9 kcals
same,"Relative body weight, % initial",[3],93.6 ± 0.5 % initial
same,"Cumulative food intake, kcals",[4],34.3 ± 2.5 kcals
same,"Daily food intake, kcals",[4],10.7 ± 0.7 kcals
same,"Relative body weight, % initial",[4],91.8 ± 0.7 % initial
same,"Cumulative food intake, kcals",[5],44.8 ± 2.9 kcals
same,"Daily food intake, kcals",[5],10.5 ± 0.8 kcals
same,"Relative body weight, % initial",[5],91.1 ± 0.6 % initial
same,"Cumulative food intake, kcals",[6],55.6 ± 3.7 kcals
same,"Daily food intake, kcals",[6],10.8 ± 0.9 kcals
same,"Relative body weight, % initial",[6],89.9 ± 0.9 % initial
same,"Cumulative food intake, kcals",[7],67.7 ± 4.3 kcals
same,"Daily food intake, kcals",[7],12.1 ± 0.9 kcals
same,"Relative body weight, % initial",[7],89.5 ± 0.9 % initial
same,"Cumulative food intake, kcals",[8],78.8 ± 4.5 kcals
same,"Daily food intake, kcals",[8],11.1 ± 0.6 kcals
same,"Relative body weight, % initial",[8],88.6 ± 0.9 % initial
same,"Cumulative food intake, kcals",[9],90.8 ± 4.7 kcals
same,"Daily food intake, kcals",[9],12.1 ± 0.6 kcals
same,"Relative body weight, % initial",[9],88.6 ± 0.9 % initial
same,"Cumulative food intake, kcals",[10],103.2 ± 5.3 kcals
same,"Daily food intake, kcals",[10],12.3 ± 0.8 kcals
same,"Relative body weight, % initial",[10],87.7 ± 1.1 % initial
same,"Cumulative food intake, kcals",[11],114.2 ± 5.8 kcals
same,"Daily food intake, kcals",[11],11 ± 0.7 kcals
same,"Relative body weight, % initial",[11],88.2 ± 1.1 % initial
same,"Cumulative food intake, kcals",[12],127.6 ± 6.1 kcals
same,"Daily food intake, kcals",[12],13.4 ± 0.6 kcals
same,"Relative body weight, % initial",[12],87.2 ± 1.1 % initial
same,"Cumulative food intake, kcals",[13],140.8 ± 6.4 kcals
same,"Daily food intake, kcals",[13],13.2 ± 0.7 kcals
same,"Relative body weight, % initial",[13],87.1 ± 1.2 % initial
same,"Cumulative food intake, kcals",[14],153.9 ± 6.9 kcals
same,"Daily food intake, kcals",[14],13.2 ± 0.7 kcals
same,"Relative body weight, % initial",[14],87.3 ± 1.3 % initial
same,"Cumulative food intake, kcals",[15],167.5 ± 7.5 kcals
same,"Daily food intake, kcals",[15],13.6 ± 0.7 kcals
same,"Relative body weight, % initial",[15],87.4 ± 1.3 % initial
same,"Cumulative food intake, kcals",[16],181.2 ± 7.8 kcals
same,"Daily food intake, kcals",[16],13.7 ± 0.5 kcals
same,"Relative body weight, % initial",[16],87.5 ± 1.3 % initial
same,"Cumulative food intake, kcals",[17],195.8 ± 7.9 kcals
same,"Daily food intake, kcals",[17],14.5 ± 0.5 kcals
same,"Relative body weight, % initial",[17],87.4 ± 1.3 % initial
same,"Cumulative food intake, kcals",[18],211 ± 8.3 kcals
same,"Daily food intake, kcals",[18],15.3 ± 0.6 kcals
same,"Relative body weight, % initial",[18],87.9 ± 1.4 % initial
same,"Cumulative food intake, kcals",[19],225.4 ± 8.7 kcals
same,"Daily food intake, kcals",[19],14.3 ± 0.8 kcals
same,"Relative body weight, % initial",[19],88.6 ± 1.4 % initial
same,"Cumulative food intake, kcals",[20],241.2 ± 8.5 kcals
same,"Daily food intake, kcals",[20],15.9 ± 0.5 kcals
same,"Relative body weight, % initial",[20],88.9 ± 1.3 % initial
same,"reduction in body weight, relative to initial body weight",0.3 μmol/kg once daily subcutaneously,11.1±1.3%
same,"Daily food intake, kcals","1.5 μmol/kg once daily s.c., day 0, mean ± SEM",13.9 ± 1.3 kcals
same,"Cumulative food intake, kcals",[21],5.5 ± 0.8 kcals
same,"Daily food intake, kcals",[21],5.5 ± 0.8 kcals
same,"Relative body weight, % initial",[21],95.1 ± 0.4 % initial
same,"Cumulative food intake, kcals",[22],10.7 ± 1.4 kcals
same,"Daily food intake, kcals",[22],5.2 ± 0.8 kcals
same,"Relative body weight, % initial",[22],93 ± 0.4 % initial
same,"Cumulative food intake, kcals",[23],19.8 ± 2.2 kcals
same,"Daily food intake, kcals",[23],9.1 ± 0.8 kcals
same,"Relative body weight, % initial",[23],92.1 ± 0.6 % initial
same,"Cumulative food intake, kcals",[24],30.5 ± 3.1 kcals
same,"Daily food intake, kcals",[24],10.7 ± 1.2 kcals
same,"Relative body weight, % initial",[24],91.3 ± 0.7 % initial
same,"Cumulative food intake, kcals",[25],41.1 ± 4 kcals
same,"Daily food intake, kcals",[25],10.7 ± 0.9 kcals
same,"Relative body weight, % initial",[25],90.6 ± 0.9 % initial
same,"Cumulative food intake, kcals",[26],51.7 ± 4.6 kcals
same,"Daily food intake, kcals",[26],10.6 ± 0.8 kcals
same,"Relative body weight, % initial",[26],89.6 ± 0.8 % initial
same,"Cumulative food intake, kcals",[27],61.9 ± 5.4 kcals
same,"Daily food intake, kcals",[27],10.2 ± 1 kcals
same,"Relative body weight, % initial",[27],88.6 ± 0.9 % initial
same,"Cumulative food intake, kcals",[28],73.8 ± 5.8 kcals
same,"Daily food intake, kcals",[28],11.9 ± 0.7 kcals
same,"Relative body weight, % initial",[28],87.8 ± 0.8 % initial
same,"Cumulative food intake, kcals",[29],86.2 ± 6.4 kcals
same,"Daily food intake, kcals",[29],12.4 ± 0.8 kcals
same,"Relative body weight, % initial",[29],87.8 ± 1 % initial
same,"Cumulative food intake, kcals",[30],97.5 ± 7.5 kcals
same,"Daily food intake, kcals",[30],11.3 ± 1.2 kcals
same,"Relative body weight, % initial",[30],87.1 ± 0.9 % initial
same,"Cumulative food intake, kcals",[31],110.4 ± 8.4 kcals
same,"Daily food intake, kcals",[31],12.8 ± 1.4 kcals
same,"Relative body weight, % initial",[31],86.9 ± 0.9 % initial
same,"Cumulative food intake, kcals",[32],123.3 ± 9.2 kcals
same,"Daily food intake, kcals",[32],12.9 ± 0.9 kcals
same,"Relative body weight, % initial",[32],86.6 ± 1.1 % initial
same,"Cumulative food intake, kcals",[33],136.4 ± 9.8 kcals
same,"Daily food intake, kcals",[33],13.2 ± 0.7 kcals
same,"Relative body weight, % initial",[33],86.7 ± 1.3 % initial
same,"Cumulative food intake, kcals",[34],149.3 ± 10.7 kcals
same,"Daily food intake, kcals",[34],12.9 ± 1.1 kcals
same,"Relative body weight, % initial",[34],86.7 ± 1.3 % initial
same,"Cumulative food intake, kcals",[35],162.8 ± 11.1 kcals
same,"Daily food intake, kcals",[35],13.5 ± 0.6 kcals
same,"Relative body weight, % initial",[35],86 ± 1.2 % initial
same,"Cumulative food intake, kcals",[36],175.1 ± 11.7 kcals
same,"Daily food intake, kcals",[36],12.2 ± 0.7 kcals
same,"Relative body weight, % initial",[36],86 ± 1.3 % initial
same,"Cumulative food intake, kcals",[37],188.7 ± 12.2 kcals
same,"Daily food intake, kcals",[37],13.6 ± 0.8 kcals
same,"Relative body weight, % initial",[37],85.7 ± 1.2 % initial
same,"Cumulative food intake, kcals",[38],202.5 ± 13.1 kcals
same,"Daily food intake, kcals",[38],13.8 ± 1 kcals
same,"Relative body weight, % initial",[38],85.9 ± 1.2 % initial
same,"Cumulative food intake, kcals",[39],217 ± 13.9 kcals
same,"Daily food intake, kcals",[39],14.5 ± 0.9 kcals
same,"Relative body weight, % initial",[39],86.4 ± 1.3 % initial
same,"Cumulative food intake, kcals",[40],231.8 ± 13.6 kcals
same,"Daily food intake, kcals",[40],14.8 ± 0.8 kcals
same,"Relative body weight, % initial",[40],86.8 ± 1.3 % initial
same,"reduction in body weight, relative to initial body weight",1.5 μmol/kg once daily subcutaneously,13.2±1.3%
same,food intake (in words),once daily subcutaneous treatment,transient reduction in food intake that returned to baseline levels during the second week of treatment
